Publication PMC8179138, “Ligand design by targeting a binding site water” (Chemical Science, 2020)
Read-outs that look alike come from different tables or passages of the source. Blank lines part the entries; values can stand above or below the molecule they belong to.

Assays:
[1] = molecular target: T1, hAR subtype A2A in HEK293 cells (Homo sapiens, UniProt P29274); experiment: Functional cAMP assay, A2AAR; format: cell-based; conditions: for Emax at 10 µM: HEK293, stimulation of cAMP production at 10 μM, n=3, read-out: Maximum efficacy A2A (% activation); for A2AAR agonist activity in words: Gs-mediated cAMP production
T1 construct: expressed in transfected cells
T1 sequence (P29274 whole entry): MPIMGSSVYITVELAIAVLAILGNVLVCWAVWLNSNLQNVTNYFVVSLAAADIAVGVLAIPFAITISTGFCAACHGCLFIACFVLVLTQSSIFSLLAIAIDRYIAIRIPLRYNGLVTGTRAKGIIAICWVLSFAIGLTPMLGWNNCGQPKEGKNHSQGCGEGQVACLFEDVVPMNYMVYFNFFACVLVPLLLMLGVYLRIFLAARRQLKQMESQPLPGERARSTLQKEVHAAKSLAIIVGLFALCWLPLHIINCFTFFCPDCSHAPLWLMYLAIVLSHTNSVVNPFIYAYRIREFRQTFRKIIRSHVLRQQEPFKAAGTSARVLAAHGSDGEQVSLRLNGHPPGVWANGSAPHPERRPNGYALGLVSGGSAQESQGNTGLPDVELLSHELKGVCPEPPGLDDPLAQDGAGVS

human A3AR [2] = molecular target: T2, human A3AR (Homo sapiens, UniProt P0DMS8); design: expressed in transfected cells; method as in Rodriguez et al.3; conditions: ref Rodriguez et al.3; cited from earlier work
T2 sequence (P0DMS8 1-318): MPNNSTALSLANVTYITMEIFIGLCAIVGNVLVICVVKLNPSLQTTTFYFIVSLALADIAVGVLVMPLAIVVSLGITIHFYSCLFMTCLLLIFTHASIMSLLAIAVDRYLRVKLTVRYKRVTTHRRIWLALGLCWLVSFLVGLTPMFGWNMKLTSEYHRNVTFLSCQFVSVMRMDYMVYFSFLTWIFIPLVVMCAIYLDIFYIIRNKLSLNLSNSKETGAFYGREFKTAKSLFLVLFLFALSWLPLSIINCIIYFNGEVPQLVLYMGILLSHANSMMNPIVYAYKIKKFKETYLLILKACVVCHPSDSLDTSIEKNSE

human A2AAR [3] = molecular target: T3, human A2AAR (Homo sapiens, UniProt P29274); design: expressed in transfected cells; conditions: cited from earlier work
T3 sequence (P29274 whole entry): as the sequence (P29274 whole entry) above

human A2AAR [4] = molecular target: T3, human A2AAR; experiment: Radioligand binding assay, A2AAR; conditions: for A2AAR activity class (Active/Inactive) in Fig. 2: summary of binding and functional data
human A3AR [5] = molecular target: T2, human A3AR; experiment: Radioligand binding assay, A3AR
human A1AR = molecular target: T4, human A1AR (Homo sapiens, UniProt P30542); experiment: Radioligand binding assay, A1AR
T4 sequence (P30542 1-326): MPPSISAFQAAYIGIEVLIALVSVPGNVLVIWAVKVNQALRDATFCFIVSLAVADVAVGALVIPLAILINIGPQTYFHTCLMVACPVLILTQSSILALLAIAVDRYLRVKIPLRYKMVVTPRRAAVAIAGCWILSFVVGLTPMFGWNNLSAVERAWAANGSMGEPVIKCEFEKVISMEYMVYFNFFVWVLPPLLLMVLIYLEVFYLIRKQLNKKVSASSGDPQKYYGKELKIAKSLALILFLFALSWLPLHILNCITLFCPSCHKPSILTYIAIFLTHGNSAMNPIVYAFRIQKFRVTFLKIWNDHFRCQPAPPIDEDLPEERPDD

[6] = molecular target: T5, hAR subtype A2B in HEK293 cells (Homo sapiens, UniProt P29275); experiment: Functional cAMP assay, A2BAR; format: cell-based
T5 construct: expressed in transfected cells
T5 sequence (P29275 1-332): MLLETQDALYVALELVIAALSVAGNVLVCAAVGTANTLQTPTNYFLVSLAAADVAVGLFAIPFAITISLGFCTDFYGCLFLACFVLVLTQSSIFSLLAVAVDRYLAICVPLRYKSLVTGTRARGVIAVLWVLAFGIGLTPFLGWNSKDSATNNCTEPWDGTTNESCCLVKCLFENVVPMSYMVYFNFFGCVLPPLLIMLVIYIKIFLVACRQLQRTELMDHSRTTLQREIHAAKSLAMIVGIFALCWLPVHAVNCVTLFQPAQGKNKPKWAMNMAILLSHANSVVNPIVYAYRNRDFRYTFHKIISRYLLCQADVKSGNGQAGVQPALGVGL

adenosine deaminase = experiment: A2AAR activity in absence and presence of adenosine deaminase; format: in vitro ADME; conditions: concluded qualitatively from A2AAR activity without and with adenosine deaminase
Protocol: For compounds 3 and 4, both binding and functional assays at the A2AAR were carried out (Fig. 2). Experiments were also performed for the A1, A2B, and A3 subtypes (Fig. S1 and Table S1 ^†).

human A2BAR = molecular target: T6, human A2BAR (Homo sapiens, UniProt P29275); experiment: Radioligand binding assay, A2BAR; conditions: read-out: % Inhibition at 10µM A2B
T6 sequence (P29275 1-332): T5 sequence (P29275 1-332)

[7] = molecular target: T7, hAR subtype A3 in HEK293 cells (Homo sapiens, UniProt P0DMS8); experiment: Functional cAMP assay, A3AR; format: cell-based
T7 construct: expressed in transfected cells
T7 sequence (P0DMS8 1-318): T2 sequence (P0DMS8 1-318)

[8] = molecular target: T8, hAR subtype A1 in HEK293 cells (Homo sapiens, UniProt P30542); experiment: Functional cAMP assay, A1AR; format: cell-based
T8 sequence (P30542 1-326): T4 sequence (P30542 1-326)

Emax at 10 µM [1]: 20 ± 4%
SMILES: Nc1nccc2c1ncn2[C@@H]1O[C@H](CO)[C@@H](O)[C@H]1O [Compound 2, 3-deazaadenosine]
% Inhibition at 10µM A3 (human A3AR [2]): 53 ± 11%
% Inhibition at 10µM A2A (human A2AAR [3]; 10 µM, ref Rodriguez et al.3): 24 ± 8%
A2AAR activity class (Active/Inactive) in Fig. 2 (human A2AAR [3]; summary of binding and functional data): Inactive
Ki (human A2AAR [3]; very low affinity): 39 µM

Ki (human A2AAR [4]): 0.103 µM
A2AAR activity class (Active/Inactive) in Fig. 2 (human A2AAR [4]): Active
Ki (human A3AR [5]): 0.28 ± 0.027 µM
Ki (human A1AR): 0.031 ± 0.004 µM
activation of A2BAR in words [6]: not
Emax ([6]; cAMP, HEK293, n=3, read-out: Maximum efficacy A2B): < 15%
resistance to degradation by adenosine deaminase (adenosine deaminase): resistance
A2AAR agonist activity in words [1]: full agonist
Emax at 10 µM [1]: 99 ± 3%
EC50 ([1]; cAMP production, HEK293, n=3): 0.732 µM
inhibition at 10 µM (human A2BAR): 29 ± 7%
activation of A3 subtype in words [7]: activated
EC50 ([7]; cAMP, HEK293, n=3): 0.318 ± 0.066 µM
Emax ([7]; cAMP, HEK293, n=3, read-out: Maximum efficacy A3): 97 ± 4%
activation of A1 subtype in words [8]: activated
EC50 ([8]; cAMP, HEK293, n=3): 0.18 ± 0.038 µM
Emax ([8]; cAMP, HEK293, n=3, read-out: Maximum efficacy A1): 101 ± 3%
SMILES: Nc1ncc(CO)c2c1ncn2C1OC(CO)C(O)C1O (stereo not drawn) [Compound 4]

% Inhibition at 10µM A2A (human A2AAR [4]; 10 µM, radioligand binding, n=3): did not show significant displacement
inhibition at 10 µM (human A2AAR [4]; read-out: % Inhibition at 10µM A2A): 13 ± 1%
A2AAR activity class (Active/Inactive) in Fig. 2 (human A2AAR [4]): Inactive
inhibition at 10 µM (human A3AR [5]; read-out: % Inhibition at 10µM A3): 50 ± 2%
inhibition at 10 µM (human A1AR; read-out: % Inhibition at 10µM A1): 48 ± 17%
A2AAR agonist activity in words [1]: inactive
Emax at 10 µM [1]: 9 ± 1%
inhibition at 10 µM (human A2BAR): 1 ± 1%
SMILES: Cc1cnc(N)c2ncn(C3OC(CO)C(O)C3O)c12 (stereo not drawn) [Compound 3]
